Measured values taken from patent publication US20260184807A1, “Methods for Treating Rheumatoid Arthritis Using a Syndecan-1 Inhibitor or Syntenin-1 Inhibitor” (The United States Government as represented by the …, priority 2022, published 2026).

Tests used:
RA FLS = RA FLS scratch assay; assay type: cell-based, human; details: Syntenin-1 1000 ng/ml 24 h; SDC1-Ab 1:100, mTORi 1 μM, HIF1αi 2 μM; FIGS. 16J-K
Protocol: RA STs were fluorescently stained to authenticate the colocalization of Mitofusin (MFN2) (FIGS. 16A-B) and DRP1 (FIGS. 16C-D) expression on Vimentin^+ FLS in the presence or absence of DAPI, (n=3, original magnification×60 or 500). RA FLS were treated with Syntenin-1 (1000 ng/ml) for 0-60 min to detect Mitofusin-2 and DRP1 expression (FIG. 16E, n=3) and actin served as equal loading, (n=3). RA FLS were treated with Syntenin-1 (1000 ng/ml) in the presence or absence of HIF1αi (2 μM) for 6 h to determine transcription of IL-1β (FIG. 16F, n=6), IL-6 (FIG. 16G, n=5), IL-8 (FIG. 16H, n=5) and CCL2 (I, n=6) by real-time RT-PCR. […] The number of cells in the scratch area was counted and compared to the untreated control, (K, n=4). RA FLS were treated with PBS or Syntenin-1 (1000 ng/ml) in the presence or absence of SDC-1 Ab (SDCab: 1:100), IL-5R Ab (IL5Ra; 2 μg/ml), or PDZli (PDZ1; 10 μM), and/or HIF1αi (2 μM) or mTORi ([…]) for 6 h before quantifying transcription levels of VEGF (FIG. 16L, n=5) and Notch1, FGF2, CXCL1, CXCL5 (FIG. 16K or 16M, n=8 or 7). Data are presented as mean±SEM; significant differences were determined by the Mann-Whitney test, 2way ANOVA, or one-way ANOVA. *p<0.05, **p<0.01, ***p<0.001, ****p<0.0001.
RA FLS and HUVEC scratch assay. […] The number of cells in the scratch area was counted and compared to the untreated control.

RA ST explants = test: Rheumatoid arthritis explants stimulated with Syntenin-1 (qRT-PCR, ELISA); assay type: cell-based, human; details: Syntenin-1 5000 ng/ml 6-8 h, mTOR1i 1 μM
Protocol: FIGS. 19A-R show Syntenin1-induced metabolic activity fine-tunes transcription of angiogenic and inflammatory factors in RA ST explants. […] RA STs were stimulated with 1000 ng/ml Syntenin-1 for 6-8 h. Synovial tissues were harvested for transcriptome analysis by qRT-PCR and supernatants were used for protein quantification by ELISA. The transcription level of JAG1 (FIG. 19F), Notch1 (FIG. 19G), VEGF (FIG. 19H), VEGFR1 (FIG. 19I), and RAPTOR (FIG. 19J) was quantified by real-time RT-PCR, n=6-8. RA explants were untreated or stimulated with 5000 ng/ml Syntenin-1 in the presence or absence of SDC1-Ab (1:100), HIF1αi (2 μM), or mTOR1i (IμM) for 6-8 h. The transcription levels of RAPTOR (FIG. 19K, n=3), VEGF (FIG. 19L, n=5), IL-1β (FIG. 19M, n=8), CCL5 (FIG. 19N, n=6), IL-6 (FIG. 19O, n=6), IL-8 (FIG. 19P, n=6), CCL2 (FIG. 19Q, n=8) were evaluated by qRT-PCR or ELISA. […] Data are presented as mean±SEM: significant differences were determined by the Mann-Whitney test, 2way ANOVA, or one-way ANOVA. *p<0.05, **p<0.01, ***p<0.001, ****p<0.0001.
RheumatoidArthritis Explants. RA ST (30 mg) was cut into small pieces to allow proper access to stimuli and were starved o/n in 0% FBS RPMI with or without SDC1-Ab (1:100), mTOR1i (1 μM), and HIF1αi ([…]). […] Tissues were harvested for transcriptome analysis and supernatants were used for protein quantification by ELISA.

## CO[C@H]1C[C@@H]2CC[C@@H](C)[C@@](O)(O2)C(=O)C(=O)N2CCCC[C@H]2C(=O)O[C@H]([C@H](C)C[C@@H]2CC[C@@H](OCCO)[C@H](OC)C2)CC(=O)[C@H](C)/C=C(\C)[C@@H](O)[C@@H](OC)C(=O)[C@H](C)C[C@H](C)/C=C/C=C/C=C/1C [mTORi, Everolimus]
RA FLS
  Syntenin-1-driven RA FLS migration: intercepted
RA ST explants; FIGS. 19Q-R
  CCL2 transcription and TNF secretion: intercepted
RA ST explants; HIF1αi 2 μM, FIG. 19K
  Syntenin-1-enriched RAPTOR expression: suppressed
